Legend:
[1] = tested on: 21-26 kDa proteins; experiment: Protein isoprenylation inhibition in NIH3T3 cells (SDS-PAGE fluorography); assay type: cell-based, mouse; details: for isoprenylation of the 21-26-kDa bands, % of the control: NIH3T3, gel slicing and scintillation counting
Experimental: "Isoprenylation" is the addition of a multiple of the 5 carbon isoprene unit to a protein. Our experiments in isoprenylation are reported at Crowell, et al. 1991, J. Biol. Chem. 266:17679-17685. To test whether a specific monoterpene affects isoprenylation of proteins in cells, […] were incubated with a radioactive isoprene precursor and 0-5 mM of the test monoterpene and then subjected to SDS-PAGE. Because they carried a radioactive label, isoprenylated proteins were visualized by fluorography. As a control, cells were incubated without the monoterpene.
Cells were harvested after trypsin treatment, washed twice with phosphate-buffered saline, suspended in electrophoresis sample buffer (Laemmli, U.K., 1970, Nature 227:680-685), and either analyzed immediately or stored at -20° C. Whole cell extracts were analyzed by SDS-PAGE on 16-cm×18-cm×0.75-mm gels by the method of Laemmli (supra). The acrylamide concentrations were 5% for the stacking gel and 12% for the separating gel. Gels were stained with Coomassie Brilliant Blue, equilibrated for 20 min in Amplify (Amersham Corp.) fluorographic reagent, dried under vacuum at 65° C., and exposed to preflashed Kodak X-Omat AR film as described by Laskey and Mills (1975, Eur. J. Biochem, 56:335-341). Some fluorograms were analyzed further by densitometry. Where indicated, gels were sliced, dissolved at 50° C. for 3 hours in 0.5 ml of water+0.5 ml of Solvable (Amersham), and then analyzed by scintillation spectrometry in 10 ml of Atom light (Amersham) mixture. Protein content was measured by the method of Lowry, et al. (1951, J. Biol. Chem. 193:265-275).
FIG. 1 depicts the structures of certain monoterpenes.
The degree of isoprenylation was evaluated by the amount of labeled protein present in the 21-26 kDa range, as evidenced by fluorography.

[2] = Plasma metabolite identification and quantitation in rats; assay type: in vivo, Wistar-Furth rat; details: rat, in vivo
Experimental: Control animals received oil alone. At the chosen time points, rats were anesthetized with ether and blood was collected into heparinized tubes (Heparin (Sigma, Grade II), at 20 mg/ml in 0.9% saline). Plasma was removed following centrifugation and stored at -20° C.
For quantitation of chronic plasma metabolite levels of perillyl alcohol, female WF rats were housed individually and fed fresh diet daily. The afternoon before blood collection, all rats were given approximately 20 grams of the appropriate diet and allowed to eat ad. libitum for 18 hours. Food consumption data was determined the next morning and the rats were bled within 2 hours following food removal.
Briefly, 5 μl of a 10 mM solution of perillaldehyde was added to 50 μl plasma as an internal standard for quantitation. The plasma was mixed with an equal volume of n-butanol:acetonitrile (1:1, v/v), after which another volume of saturated potassium phosphate was added. After vortexing, the samples were centrifuged and the organic layer removed from the top.
Plasma extracts were analyzed using a Hewlett-Packard 5891 gas chromatograph equipped with a flame-ionization detector or a Hewlett-Packard 5890 chromatograph equipped with a 5971A mass-selective detector, both with 30 m Supelco SPB-5 columns. The temperature program was 90° C. for 4 minutes, increasing by 10° C./minute, followed by 15 minutes at 275° C. The split ratio was 1:10 and the linear velocity was 1.1 ml/minute. Standard curves were generated by adding 5 μl rat plasma. Standards were then extracted and analyzed by capillary gas chromatography. The ratio of the terpene peak area/perillaldehyde peak area versus the concentration of terpene in the sample was plotted.

[3] = tested on: 21-26 kDa proteins; experiment: Protein isoprenylation inhibition in M600B human mammary epithelial cells
Experimental: To test whether a specific monoterpene affects isoprenylation of proteins in cells, cell extracts were incubated with a radioactive isoprene precursor and 0-5 mM of the test monoterpene and then subjected to SDS-PAGE. Because they carried a radioactive label, isoprenylated proteins were visualized by fluorography. As a control, cells were incubated without the monoterpene.
For both isoprenylation and cell growth assays, the monoterpenes were mixed with prewarmed (37° C.) medium containing 10% calf serum, and then the monoterpene-containing medium was added to cells. The relative effects of various monoterpenes on protein isoprenylation were compared by comparison of the relative intensity of bands on fluorograms from [^14 C]-mevalonate-labelled cells treated with each monoterpene.
Samples from each cell line were then analyzed on the same gel.

[4] = rat, in vivo; cited from earlier work
[5] = in vivo; cited from earlier work
[6] = Chemistry panel and toxicity monitoring in human subjects; details: 100 mg/kg d-limonene
Experimental: The custard consisted of dry unflavored custard mix, cold water, cold whole milk, and orange oil. The components were blended at room temperature and then refrigerated for at least 30 minutes prior to ingestion by the subjects. Subjects ingested the orange oil-containing mixture over 2-10 minutes. […] One subject had additional blood draws for metabolite analysis at 1, 2, and 8 h post-ingestion. The chemistry panel consisted of: BUN, creatinine, calcium, magnesium, phosphorous, uric acid, total cholesterol, total protein, albumin, total bilirubin, y-glutamyl transpeptidase, alkaline phosphatase, aspartate aminotransferase, and lactate dehydrogenase. Subjects were monitored for toxicity for one week.

[7] = in vivo
Experimental: Subjects: The subjects were five females and two males, median age of 32 years (range 23-55) and without illness or laboratory abnormalities.
The custard consisted of dry unflavored custard mix, cold water, cold whole milk, and orange oil. The components were blended at room temperature and then refrigerated for at least 30 minutes prior to ingestion by the subjects. Subjects ingested the orange oil-containing mixture over 2-10 minutes. […] The chemistry panel consisted of: BUN, creatinine, calcium, magnesium, phosphorous, uric acid, total cholesterol, total protein, albumin, total bilirubin, y-glutamyl transpeptidase, alkaline phosphatase, aspartate aminotransferase, and lactate dehydrogenase. Subjects were monitored for toxicity for one week.

[8] = tested on: DMBA-induced rat mammary carcinomas; experiment: Regression of DMBA-induced mammary carcinomas, pair-feeding study; assay type: in vivo, Wistar-Furth rat
Experimental: We used Wistar-Furth female rats for in vivo studies. Wistar-Furth female rats were obtained from Harlan Sprague-Dawley, Inc., (Madison, Wis.). All rats, arriving at 43-48 days of age, were housed at four rats per cage in wire-bottom metal cages and all were maintained with a light/dark cycle of 12 hours. Rats were provided Teklad Lab blox chow and acidified water ad libitum.
After one week of acclimation, the carcinogen DMBA was administered to the rats, which were 50-55 days old at this point. The DMBA was dissolved in a stock solution of 20 mg DMBA/ml sesame oil, heated and allowed to cool to room temperature before administration. DMBA (Eastman Kodak, Rochester, N.Y.) was given as a single gastric intubation of 50 mg DMBA/kg rat body weight.
In the pair-feeding study, a group of 70 mammals was treated with DMBA. Beginning four weeks post carcinogen administration, mammals were weighed and palpated weekly. Upon palpation of the first mammary carcinoma (diameter≥3 mm), mammals were randomly assigned to control or 2.5% (w/w) perillyl alcohol diet and pair-fed.
Perillyl alcohol (>96% pure by GC analysis, Aldrich, Milwaukee, Wis.) and Teklad 4% mouse/rat diet meal were thoroughly mixed and stored at -20° C. Fresh diets were made every 7-10 days. All mammals were provided fresh diet daily to minimize evaporation of the monoterpenes. For pair-feeding, the quantity of diet consumed by the monoterpene-fed mammals was measured every 24 hours and the assigned partner was pair-fed accordingly.
In the pair-feeding study, all palpable mammary carcinomas were classified as either "primary" tumors (i.e, the first tumor(s) palpated with a minimum diameter of 3 mm) or "secondary" tumors (i.e. a palpable tumor arising after initial diet assignment). At diet assignment, some mammals had more than one primary tumor. All carcinogen-exposed mammals not bearing a first palpable tumor by week 15 post-carcinogen were removed from the experiment. Complete regression of a tumor was defined as non-palpability for a minimum of three consecutive weeks. All mammals in the pair-feeding study were followed for a minimum of 10 weeks post-diet assignment for tumor growth or regression at primary tumor sites and all other mammary glands. The rats were necropsied if moribund. Complete necropsies were performed on all rats at the termination of the study. Greater than 95% of tumors remaining at the autopsy date were diagnosed as mammary carcinomas based on gross and histopathological criteria.

[9] = tested on: HT29 cells; experiment: Inhibition of HT29 colon adenocarcinoma cell growth/proliferation; assay type: cell-based, human; details: 1 = greatest inhibition, 5 = least inhibition
Experimental: We examined the effect of several of the terpenes on certain types of cell growth. […] Additionally, growth of HT29 (human colon adenocarcinoma) cells was inhibited by 80% by 1 mM perillyl alcohol.

[10] = 10% limonene diet or 2.5% POH diet

In the case of `C=C(C)[C@H]1CC=C(C)CC1` [limonene], the “isoprenylation of the 21-26-kDa bands, % of the control” value ([1]; 0.5 mM limonene) is reported as ~ 50 % of the control, the “intensity of the 66-, 46-, and 17-kDa bands” value ([1]; 0.5 mM or 5 mM limonene) is reported as “not different from that of the control” and the “isoprenylation of the 21-26-kDa bands, % of the control” value ([1]; 5 mM limonene) is reported as ~ 25 % of the control. For the same compound, the “mM DHPAME” value [2] was “trace”, the “metabolism at 4 hours” value [2] was “equal amounts of perillic and dihydroperillic acid” and the “parent in plasma at 24 hours” value [2] was “no limonene was detectable in the plasma”. The “time parent found in plasma” value [2] was “up to 4 hours”, the “Total” value ([2]; 30240 min) was 0.19 mM and the “mM DHPA” value ([2]; 30240 min) was 0.06 ± 0.01 mM. For the same compound, the “mM DHPAME” value ([2]; 30240 min) was 0.01 ± 0.00 mM, the “mM LIM/POH” value ([2]; 30240 min) was 0 mM and the “mM PA” value ([2]; 30240 min) was 0.10 ± 0.02 mM. The “mM PAME” value ([2]; 30240 min) was 0.02 ± 0.01 mM, the “Total” value ([2]; 50400 min) was 0.28 mM and the “mM DHPA” value ([2]; 50400 min) was 0.09 ± 0.02 mM. The “mM DHPAME” value ([2]; 50400 min) was 0.01 ± 0.00 mM, the “mM LIM/POH” value ([2]; 50400 min) was 0 mM and the “mM PA” value ([2]; 50400 min) was 0.14 ± 0.03 mM. The “mM PAME” value ([2]; 50400 min) was 0.04 ± 0.01 mM, the “Total” value ([2]; 100800 min) was 0.27 mM and the “mM DHPA” value ([2]; 100800 min) was 0.12 ± 0.01 mM. For the same compound, the “mM LIM/POH” value ([2]; 100800 min) was 0 mM, the “mM PA” value ([2]; 100800 min) was 0.13 ± 0.01 mM and the “mM PAME” value ([2]; 100800 min) was 0.02 ± 0.00 mM. The concentration ([2]; po, 1000 mg/kg, 4 h) was 90 ± 20 µM, the “intensity of the 21-26 kDa bands” value ([3]; 5 mM limonene) was “marked decrease” and the “concentration required for significant inhibition of protein isoprenylation” value ([3]; dose responsive) was “at least 1 mM”. For the same compound, the “time of highest concentrations of limonene-derived material” value [4] was 2 to 12 h, the side-effects [5] was “not without some side-effects” and the gradeable toxicity [6] was “No gradeable toxicity was encountered”. For the same compound, the “time of highest metabolite concentrations” value ([7]; human) was 4 h, the “identity of abundant human metabolite H2” value [7] was “limonene-1,2-diol” and the “metabolite concentrations at 24 h (8 h in one subject)” value [7] was “lower than those at the 4 h time point”. For the same compound, the “Primary carcinoma complete regression (tumors regressed / tumors)” value [8, 10] was 19/28, the “Primary carcinoma regression (%)” value [8, 10] was 68% and the “Secondary carcinoma regression (%)” value [8, 10] was 63%. For the same compound, the “Secondary carcinoma regression (tumors regressed / tumors)” value [8, 10] was 17/27, the Secondary carcinomas/rat [8, 10] was 1.08 and the “development of secondary carcinomas” value ([8]; after initial diet assignment) was “number of secondary carcinomas was higher in the limonene-fed mammals”. The “Time to Regress (wks)” value ([8]; primary carcinoma, footnote: Kaplan-Meier estimate of time when 25% regressed) was 3.25 wks and the “Rank order, inhibition of HT-29 tumor cell proliferation” value [9] was 5.
